Results reported in article PMC10518257 (Nature Cancer, 2023).
Where “and” joins values, the source holds several entries; their conditions need not be identical. Equal entries are not always repeated. Where two headings read alike, the source gives them in different places.

Tests used:
[1] = tested on: Ba/F3 cells expressing KIF5B–RET^WT; experiment: Growth inhibition assay in Ba/F3 cells (CellTiter-Glo, 72 h); format: cell-based
[2] = tested on: LUAD-0002AS1 cells; experiment: Growth inhibition (alamarBlue, 96 h); format: cell-based, human; conditions: for raw viability signal (Source Data Fig. 3b-c): LUAD-0002AS1, replicate sets
[3] = target: T1, panel of 255 (vepafestinib) or 256 (all other inhibitors) recombinant kinases (Homo sapiens, UniProt P16234); experiment: Kinase selectivity profiling at a single concentration (Carna Biosciences); format: biochemical; conditions: 22 nM
T1 construct: purchased Carna Biosciences
T1 sequence (P16234 24-1089): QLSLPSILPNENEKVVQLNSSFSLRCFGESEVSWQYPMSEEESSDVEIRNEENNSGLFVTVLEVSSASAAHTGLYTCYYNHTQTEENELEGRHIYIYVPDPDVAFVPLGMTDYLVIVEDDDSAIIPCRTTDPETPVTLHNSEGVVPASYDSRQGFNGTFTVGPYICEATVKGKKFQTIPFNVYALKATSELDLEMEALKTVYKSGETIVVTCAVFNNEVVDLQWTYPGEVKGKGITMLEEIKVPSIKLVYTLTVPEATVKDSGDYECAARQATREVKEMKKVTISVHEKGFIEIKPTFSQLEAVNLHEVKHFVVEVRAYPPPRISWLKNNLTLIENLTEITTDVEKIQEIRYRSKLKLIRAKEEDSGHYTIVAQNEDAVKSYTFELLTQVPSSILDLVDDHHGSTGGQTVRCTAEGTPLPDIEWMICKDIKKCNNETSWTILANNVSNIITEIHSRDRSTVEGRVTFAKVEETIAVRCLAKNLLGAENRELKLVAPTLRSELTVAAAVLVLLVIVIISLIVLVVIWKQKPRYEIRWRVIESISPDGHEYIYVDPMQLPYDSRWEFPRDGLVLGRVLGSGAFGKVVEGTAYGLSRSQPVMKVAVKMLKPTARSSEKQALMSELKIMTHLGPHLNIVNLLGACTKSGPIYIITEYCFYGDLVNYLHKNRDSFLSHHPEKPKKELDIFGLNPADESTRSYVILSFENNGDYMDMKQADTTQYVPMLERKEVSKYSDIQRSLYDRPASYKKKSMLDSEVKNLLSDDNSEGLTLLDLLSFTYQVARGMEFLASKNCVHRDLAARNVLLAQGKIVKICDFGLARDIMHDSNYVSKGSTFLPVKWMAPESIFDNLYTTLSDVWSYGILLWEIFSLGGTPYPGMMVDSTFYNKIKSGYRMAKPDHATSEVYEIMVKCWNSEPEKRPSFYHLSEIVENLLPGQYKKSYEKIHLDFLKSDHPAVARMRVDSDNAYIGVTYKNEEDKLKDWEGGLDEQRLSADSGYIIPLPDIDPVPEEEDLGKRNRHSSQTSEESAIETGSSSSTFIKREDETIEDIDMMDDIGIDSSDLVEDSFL

[4] = target: T2, panel of 255 (vepafestinib) or 256 (all other inhibitors) recombinant kinases (Homo sapiens, UniProt P35916); experiment: as above; format: biochemical; conditions: 22 nM
T2 construct: purchased Carna Biosciences
T2 sequence (P35916 25-1363): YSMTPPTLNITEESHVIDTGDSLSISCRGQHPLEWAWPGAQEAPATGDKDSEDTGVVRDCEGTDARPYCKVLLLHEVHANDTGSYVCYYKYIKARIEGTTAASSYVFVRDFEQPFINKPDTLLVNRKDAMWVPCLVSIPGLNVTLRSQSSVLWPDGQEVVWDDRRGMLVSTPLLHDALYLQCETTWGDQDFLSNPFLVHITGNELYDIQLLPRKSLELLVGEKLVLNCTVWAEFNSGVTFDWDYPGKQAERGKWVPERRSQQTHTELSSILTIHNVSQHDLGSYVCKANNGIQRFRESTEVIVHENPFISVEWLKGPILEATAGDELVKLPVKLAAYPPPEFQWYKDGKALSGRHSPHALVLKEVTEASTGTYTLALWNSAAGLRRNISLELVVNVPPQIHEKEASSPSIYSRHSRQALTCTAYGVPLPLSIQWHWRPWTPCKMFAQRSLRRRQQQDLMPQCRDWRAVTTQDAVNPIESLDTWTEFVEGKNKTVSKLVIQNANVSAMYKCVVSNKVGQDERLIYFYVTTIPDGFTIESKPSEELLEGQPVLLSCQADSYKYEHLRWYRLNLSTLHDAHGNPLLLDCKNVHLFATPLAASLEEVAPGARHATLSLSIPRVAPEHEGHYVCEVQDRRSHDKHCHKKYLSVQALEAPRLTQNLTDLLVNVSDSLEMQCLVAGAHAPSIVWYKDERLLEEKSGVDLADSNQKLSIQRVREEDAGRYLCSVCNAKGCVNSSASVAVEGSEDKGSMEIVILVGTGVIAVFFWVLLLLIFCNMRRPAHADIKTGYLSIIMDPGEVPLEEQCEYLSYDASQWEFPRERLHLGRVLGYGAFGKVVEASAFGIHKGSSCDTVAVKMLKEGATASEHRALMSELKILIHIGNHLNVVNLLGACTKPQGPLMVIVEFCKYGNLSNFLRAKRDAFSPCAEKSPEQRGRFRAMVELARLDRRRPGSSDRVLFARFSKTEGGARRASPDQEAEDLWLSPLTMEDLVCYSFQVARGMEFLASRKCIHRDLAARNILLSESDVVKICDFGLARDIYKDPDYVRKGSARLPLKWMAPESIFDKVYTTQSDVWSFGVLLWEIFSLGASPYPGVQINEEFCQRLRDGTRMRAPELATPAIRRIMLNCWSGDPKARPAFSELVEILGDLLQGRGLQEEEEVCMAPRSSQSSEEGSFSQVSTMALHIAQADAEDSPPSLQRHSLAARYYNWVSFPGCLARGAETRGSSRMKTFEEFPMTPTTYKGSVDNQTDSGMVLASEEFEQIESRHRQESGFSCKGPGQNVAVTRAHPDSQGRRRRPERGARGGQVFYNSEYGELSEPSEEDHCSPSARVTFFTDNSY

[5] = target: panel of 255 (vepafestinib) or 256 (all other inhibitors) recombinant kinases; experiment: as above; format: biochemical; conditions: 22 nM, 256 kinases
[6] = tested on: Ba/F3 cells expressing KIF5B–RET^V804L; experiment: Growth inhibition assay in Ba/F3 cells (CellTiter-Glo, 72 h); format: cell-based; conditions: replicate sets
[7] = tested on: Ba/F3-CCDC6::RET^S904F; experiment: as above; format: cell-based
[8] = tested on: Ba/F3-CCDC6::RET; experiment: as above; format: cell-based
[9] = tested on: ECLC5 luciferase cells implanted intracranially; experiment: Intracranial efficacy study; format: in vivo, NSG mice; conditions: for Luminescence Data: Fig. 8e ECLC5 intracranial, individual animals
[10] = tested on: ECLC5B cells; experiment: Growth inhibition (alamarBlue, 96 h); format: cell-based, human; conditions: for raw viability signal (Source Data Fig. 3b-c): ECLC5B, replicates
[11] = Homo sapiens, 96 h, read-out: IC50 for Inhibition of Growth (95% CI)

COc1ccc(CN2C3CC2CN(c2ccc(-c4cc(OCC(C)(C)O)cn5ncc(C#N)c45)cn2)C3)cn1 [Selpercatinib]
GI50 ([1]; Ba/3-KIF5B-RET, replicate sets): 6.35 nM and 7.55 nM
GI50 ([1]; Mus musculus, BaF3, 72 h, read-out: GI50 value (Mean ± SD), Ba/F3-KIF5B::RET, CellTiter-Glo, 72 h): 6.68 ± 0.76 nM
GI50 ([1]; Mus musculus, BaF3, Ba/3-KIF5B-RET, replicate sets): 6.13 nM
IC50 [2, 11]: 3 nM
raw viability signal (Source Data Fig. 3b-c) ([2]; 0.01 nM): 16631.5 and 13192.5 and 12693
raw viability signal (Source Data Fig. 3b-c) ([2]; 0.1 nM): 14296.3 and 14495.9 and 14138.2
raw viability signal (Source Data Fig. 3b-c) ([2]; 1 nM): 14160.4 and 9635.41 and 11277.7
raw viability signal (Source Data Fig. 3b-c) ([2]; 10 nM): 3799.84 and 3179.94 and 4108.28
raw viability signal (Source Data Fig. 3b-c) ([2]; 100 nM): 2188.78 and 2790.7 and 3166.11
raw viability signal (Source Data Fig. 3b-c) ([2]; 1000 nM): 1304.58 and 2278.18 and 2772.5
raw viability signal (Source Data Fig. 3b-c) ([2]; 10000 nM): 935.372 and 1860.61 and 2356.9
% Inhibiton PDGFRα [3]: 28.7%
% Inhibiton FLT4 [4]: 84.9%
kinases inhibited by >50% [5]: three
GI50 ([6]; Ba/3-KIF5B-RET-V804L): 8.67 nM and 7.06 nM
GI50 ([6]; Mus musculus, BaF3, Ba/3-KIF5B-RET-V804L): 5.67 nM
GI50 ([7]; Mus musculus, BaF3, 72 h, read-out: GI50 value (Mean ± SD), Ba/F3-CCDC6::RET^S904F, CellTiter-Glo, 72 h): 4.76 ± 3.02 nM
GI50 ([7]; read-out: GI50 values, Ba/F3-CCDC6::RET S904F, individual sets (replicate experiments)): 4.25 nM and 8 nM and 2.03 nM
GI50 ([8]; BaF3/CCDC6-RET, 72 h, read-out: GI50 value (Mean ± SD), Ba/F3-CCDC6::RET, CellTiter-Glo, 72 h): 21.4 ± 7.5 nM
GI50 ([8]; read-out: GI50 values, Ba/F3-CCDC6::RET, individual sets (replicate experiments)): 13 nM and 27.4 nM
median survival time ([9]; 10 mg per kg BID): 99 d of treatment
Area Under Curve Mean ([9]; Fig. 8e (middle panel) ECLC5 luminescence, 10 mg/kg BID): 27186332000
Luminescence Data ([9]; 10 mg/kg BID, treatment day 0 (=1)): 1
Luminescence Data ([9]; 10 mg/kg BID, treatment day 5, day 0 = 1, 10 mg/kg): 1.5865 and 1.821 and 1.255 and 0.4814 and 3.25 and 0.8886
Luminescence Data ([9]; 10 mg/kg BID, treatment day 12, day 0 = 1, 10 mg/kg): 3.019 and 2.275 and 2.308 and 0.7742 and 2.674 and 1.142
Luminescence Data ([9]; 10 mg/kg BID, treatment day 18, day 0 = 1, 10 mg/kg): 4.468 and 13.8627 and 3.677 and 17.2275 and 4.61 and 2.3303
Luminescence Data ([9]; 10 mg/kg BID, treatment day 26, day 0 = 1, 10 mg/kg): 4.838 and 8.783 and 2.8 and 90.8154 and 2.049 and 2.4586
Luminescence Data ([9]; 10 mg/kg BID, treatment day 33, day 0 = 1, 10 mg/kg): 19.3932 and 14.9637 and 7.347 and 180.944 and 3.353 and 5.483
Luminescence Data ([9]; 10 mg/kg BID, treatment day 40, day 0 = 1, 10 mg/kg): 20.6751 and 16.1418 and 17.1097 and 476.137 and 5.8 and 4.798
Luminescence Data ([9]; 10 mg/kg BID, treatment day 46, day 0 = 1, 10 mg/kg): 53.1577 and 52.4694 and 35.0274 and 881.545 and 19.3617 and 18.0494
Luminescence Data ([9]; 10 mg/kg BID, treatment day 55, day 0 = 1, 10 mg/kg): 200.4 and 271.183 and 155.59 and 1935.62 and 78.0003 and 75.6827
Luminescence Data ([9]; 10 mg/kg BID, treatment day 61, day 0 = 1, 10 mg/kg): 323.18 and 414.363 and 232.604 and 1527.04 and 186.289 and 64.6294
Luminescence Data ([9]; 10 mg/kg BID, treatment day 68, day 0 = 1, 10 mg/kg): 561.802 and 676.257 and 207.714 and 1673.82 and 333.171 and 210.62
Luminescence Data ([9]; 10 mg/kg BID, treatment day 75, day 0 = 1, 10 mg/kg): 570.505 and 1484.59 and 792.807 and 4751.93 and 432.014 and 174.469
Luminescence Data ([9]; 10 mg/kg BID, treatment day 82, day 0 = 1, 10 mg/kg): 999.294 and 1867.47 and 955.043 and 3557.94 and 547.305 and 464.239
raw viability signal (Source Data Fig. 3b-c) ([10]; 0.01 nM): 10363.9 and 7402.21 and 18274
raw viability signal (Source Data Fig. 3b-c) ([10]; 0.1 nM): 11026.5 and 8834.98 and 20243.9
raw viability signal (Source Data Fig. 3b-c) ([10]; 1 nM): 10668.5 and 7252.95 and 17721.9
raw viability signal (Source Data Fig. 3b-c) ([10]; 10 nM): 3598.88 and 1351.95 and 6402.34
raw viability signal (Source Data Fig. 3b-c) ([10]; 100 nM): 3342.11 and 1356.99 and 4729.16
raw viability signal (Source Data Fig. 3b-c) ([10]; 1000 nM): 2886.96 and 1354.63 and 4277.75
raw viability signal (Source Data Fig. 3b-c) ([10]; 10000 nM): 1612.7 and 1276.67 and 2944.43
IC50 [10, 11]: 5 nM
